Source: patent US20260184708A1, “PYRIDAZINONES AND METHODS OF USE THEREOF” (GFB (ABC), LLC, priority 2017, published 2026)
Read-outs that look alike come from different tables or passages of the source.

Target: T1, TRPC5 (Homo sapiens, UniProt Q9UL62)
T1 construct: expressed in transfected cells; host or cells: HEK 293
T1 sequence (Q9UL62 1-973): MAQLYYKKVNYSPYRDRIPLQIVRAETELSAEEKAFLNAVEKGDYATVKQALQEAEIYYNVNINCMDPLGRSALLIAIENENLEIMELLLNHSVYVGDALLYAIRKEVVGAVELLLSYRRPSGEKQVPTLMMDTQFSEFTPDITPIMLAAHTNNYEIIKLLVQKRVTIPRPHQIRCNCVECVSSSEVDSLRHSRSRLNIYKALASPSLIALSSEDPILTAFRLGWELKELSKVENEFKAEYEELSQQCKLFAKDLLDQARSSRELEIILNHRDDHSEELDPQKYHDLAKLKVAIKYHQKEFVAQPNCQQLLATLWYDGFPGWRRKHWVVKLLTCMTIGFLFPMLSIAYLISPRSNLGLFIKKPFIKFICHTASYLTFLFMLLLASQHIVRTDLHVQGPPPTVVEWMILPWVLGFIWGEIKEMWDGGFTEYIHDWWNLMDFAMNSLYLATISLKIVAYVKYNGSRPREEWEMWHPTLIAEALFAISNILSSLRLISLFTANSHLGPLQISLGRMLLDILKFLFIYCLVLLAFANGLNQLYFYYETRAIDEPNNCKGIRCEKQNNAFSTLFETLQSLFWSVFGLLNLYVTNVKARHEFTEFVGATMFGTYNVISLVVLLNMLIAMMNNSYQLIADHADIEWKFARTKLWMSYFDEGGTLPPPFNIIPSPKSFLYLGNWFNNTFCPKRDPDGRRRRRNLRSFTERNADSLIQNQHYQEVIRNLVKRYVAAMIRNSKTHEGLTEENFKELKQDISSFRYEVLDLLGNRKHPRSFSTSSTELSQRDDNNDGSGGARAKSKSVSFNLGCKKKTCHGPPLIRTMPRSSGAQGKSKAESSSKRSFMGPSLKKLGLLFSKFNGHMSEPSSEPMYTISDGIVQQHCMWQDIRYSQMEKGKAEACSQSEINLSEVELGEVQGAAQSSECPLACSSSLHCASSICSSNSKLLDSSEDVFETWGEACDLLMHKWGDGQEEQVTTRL
Assay: TRPC5 automated patch clamp assay (Qpatch), current block after rosiglitazone stimulation
Type: cell-based
Details: HEK293 cells overexpressing TRPC5, rosiglitazone stimulation
Method: HEK 293 cells expressing human TRPC5 were harvested, re-suspended in serum free medium, and added to the automated platform and used within 2-3 hours. Internal and external physiological solutions were freshly prepared prior to the assay. The external solution contained: 145 mM NaCl, 4 mM KCl, 2 mM CaCl2), 1 mM MgCl2, 10 mM HEPES, 10 mM glucose, pH 7.4 with NaOH and 300 mOsm/L. The internal solution contained 120 mM L-aspartic acid, 120 mM CsOH·H2O, 20 mM CsCl, 2 mM MgCl2, 8.8 mM CaCl2), 10 mM EGTA, 10 mM HEPES, 10 mM Glucose, 0.1 mM GTP and 2 mM Na2ATP; pH 7.2 with CsOH and 290 mOsm/L. The free internal Ca2+ concentration was buffered to 1 μM.
The automated electrophysiological platform QPatch 16 from Sophion (Denmark) was used to carry out the compounds profiling. The series resistance and quality of seals were continuously monitored during the experiments. Data was analyzed using Sophion QPatch assay software 5.6 (Odense). IC50 values were calculated using a least squares regression algorithm (Hill equation).
To monitor the ion currents, a voltage ramp from −100 mV to +100 mV, over 300 ms, was applied every 10 seconds, from a holding potential of −60 mV.
After recording for a minimum of 60 seconds control period, Rosiglitazone (30 uM), was applied to activate the channel.

[1] = Table 3, 80 mV, read-out: TRPC5_QP_ XC50_80
[2] = Table 3, 100 mV, read-out: TRPC5_QP_ XC50_100
[3] = Table 4, 80 mV, read-out: TRPC5_QP_ XC50_80
[4] = Table 4, 100 mV, read-out: TRPC5_QP_ XC50_100

Compound | IC50 [1] | IC50 [2] | IC50 [3] | IC50 [4]
Cc1ccccc1CN1CC2CC1CN2c1cn[nH]c(=O)c1Br (centres unmarked) | 10 to 500 µM | 10 to 500 µM | – | –
Cc1ccccc1CN1CC2(C1)CN(c1cn[nH]c(=O)c1Br)C2 | 10 to 500 µM | 10 to 500 µM | – | –
O=c1[nH]ncc(N2CCN(CC(F)(F)F)CC2)c1Br | 10 to 500 µM | 10 to 500 µM | – | –
O=c1[nH]ncc(N2CCN(Cc3cccc(C(F)(F)F)c3)CC2)c1Cl | 1 to 5 µM | 1 to 5 µM | – | –
Cc1ccccc1CN1CCN(c2cn[nH]c(=O)c2Cl)CC1 | 1 to 5 µM | 1 to 5 µM | – | –
Cc1ccccc1CN1CCN(c2cn[nH]c(=O)c2-c2ccccc2)CC1 | 5 to 10 µM | 5 to 10 µM | – | –
Cc1ccccc1CN1CCC2(C1)CN(c1cn[nH]c(=O)c1Br)C2 | 10 to 500 µM | 10 to 500 µM | – | –
Cc1ccccc1CN1CC2(CCN(c3cn[nH]c(=O)c3Br)C2)C1 | 10 to 500 µM | 10 to 500 µM | – | –
Cc1ccccc1CN1CCN(c2cn[nH]c(=O)c2C#CC(C)C)CC1=O | 10 to 500 µM | 10 to 500 µM | – | –
Cc1ccccc1CN1CCN(c2cn[nH]c(=O)c2OC2CCCC2)CC1=O | 5 to 10 µM | 5 to 10 µM | – | –
Cc1cc(F)ccc1CN1CCN(c2cn[nH]c(=O)c2Br)CC1=O | 1e-05 to 1 µM | 1 to 5 µM | – | –
COc1c(N2CCN(Cc3ccccc3C)C(=O)C2)cn[nH]c1=O | 10 to 500 µM | 10 to 500 µM | – | –
O=C1CN(c2cn[nH]c(=O)c2Br)CCN1Cc1ccc(F)cc1F | 1 to 5 µM | 1 to 5 µM | – | –
Cc1ccccc1CN1CCN(c2cn[nH]c(=O)c2-c2ccccc2)CC1=O | 10 to 500 µM | 10 to 500 µM | – | –
Cc1ccccc1CN1CCN(c2cn[nH]c(=O)c2C)CC1=O | 5 to 10 µM | 5 to 10 µM | – | –
Cc1ccccc1CN1CCN(c2cn[nH]c(=O)c2-c2ccccn2)CC1=O | 10 to 500 µM | 10 to 500 µM | – | –
CCS(=O)(=O)c1c(N2CCN(Cc3ccccc3C)C(=O)C2)cn[nH]c1=O | 10 to 500 µM | 10 to 500 µM | – | –

Compound | IC50 [1] | IC50 [2] | IC50 [3] | IC50 [4]
O=c1[nH]ncc(N2CCN(Cc3ccc(Cl)cc3F)CC2)c1Cl | 5 to 10 µM | 10 to 500 µM | – | –
Cc1ccccc1CN1CCN(c2cn[nH]c(=O)c2C2=CCOCC2)CC1=O | 10 to 500 µM | 10 to 500 µM | – | –
O=C1CN(c2cn[nH]c(=O)c2Cl)CCN1Cc1ccccc1C(F)(F)F | 1e-05 to 1 µM | 1e-05 to 1 µM | – | –
Cc1ccccc1CN1CCN(c2cn[nH]c(=O)c2N2CCOCC2)CC1=O | 10 to 500 µM | 10 to 500 µM | – | –
Cc1ccccc1CN1CCN(c2c(Cl)cn[nH]c2=O)CC1 | – | – | 5 to 10 µM | 5 to 10 µM
C[C@@H]1CN(Cc2cccc3ccccc23)CCN1c1cn[nH]c(=O)c1Cl | – | – | 5 to 10 µM | 5 to 10 µM
Cc1ccccc1CN1CCN(c2cn[nH]c(=O)c2Cl)C(C)C1 (centres unmarked) | – | – | 1 to 5 µM | 1 to 5 µM
Cc1cc(F)ccc1CN1CCN(c2cc(C)c(=O)[nH]n2)CC1 | – | – | 5 to 10 µM | 5 to 10 µM
C[C@H](c1ccccc1)N1CCN(c2cn[nH]c(=O)c2Cl)CC1 | – | – | 1 to 5 µM | 1 to 5 µM
O=C1CN(c2cn[nH]c(=O)c2Cl)CCN1Cc1ccc(-c2ccccc2)cc1 | – | – | 10 to 500 µM | 10 to 500 µM
Cc1ccccc1CN1CCN(c2cn[nH]c(=O)c2C(C)C)CC1=O | – | – | 1 to 5 µM | 1 to 5 µM
C=Cc1c(N2CCN(Cc3ccccc3C)C(=O)C2)cn[nH]c1=O | – | – | 1 to 5 µM | 1 to 5 µM
Cc1ccccc1[C@@H](C)N1CCN(c2cn[nH]c(=O)c2Cl)CC1 | – | – | 1 to 5 µM | 1 to 5 µM
O=C1CN(c2cn[nH]c(=O)c2Cl)CCN1Cc1ccc(Cl)cn1 | – | – | 10 to 500 µM | 10 to 500 µM
O=C1CN(c2cn[nH]c(=O)c2Cl)CCN1Cc1ccc(C(F)(F)F)cc1 | – | – | 1e-05 to 1 µM | 1e-05 to 1 µM
O=C1CN(c2cn[nH]c(=O)c2Cl)CCN1Cc1ccc(F)cc1OC(F)(F)F | – | – | 1 to 5 µM | 1 to 5 µM
Cc1cc(F)ccc1CN1CCN(c2c(Cl)c(C)n[nH]c2=O)CC1=O | – | – | 10 to 500 µM | 10 to 500 µM

Now from value to compound:

IC50 [1] | IC50 [2] | IC50 [3] | IC50 [4] | Compound
1 to 5 µM | 1 to 5 µM | – | – | O=c1[nH]ncc(N2CCN(Cc3ccccc3OC(F)(F)F)CC2)c1Br
1 to 5 µM | 1 to 5 µM | – | – | O=c1[nH]ncc(N2CCN(Cc3ccccc3OC(F)(F)F)CC2)c1Cl
10 to 500 µM | 10 to 500 µM | – | – | Cc1ccccc1CN1CCN(c2cn[nH]c(=O)c2C#CC2CC2)CC1=O
1 to 5 µM | 1 to 5 µM | – | – | O=C1CN(c2cn[nH]c(=O)c2Br)CCN1CC1CCCCC1
5 to 10 µM | 5 to 10 µM | – | – | O=C1CN(c2cn[nH]c(=O)c2Cl)CCN1Cc1ccc(Cl)cc1F
1 to 5 µM | 5 to 10 µM | – | – | O=c1[nH]ncc(N2CCN(Cc3ccc(F)cc3Cl)CC2)c1Cl
– | – | 5 to 10 µM | 5 to 10 µM | O=c1[nH]ncc(Cl)c1N1CCN(Cc2ccccc2C(F)(F)F)CC1
– | – | 10 to 500 µM | 10 to 500 µM | CCN(CC)C(=O)CN1CCN(c2cn[nH]c(=O)c2Cl)CC1=O
– | – | 10 to 500 µM | 10 to 500 µM | COCCOc1c(N2CCN(Cc3ccccc3C)C(=O)C2)cn[nH]c1=O
– | – | 10 to 500 µM | 10 to 500 µM | CCN(CC)C(=O)CN1CCN(c2cn[nH]c(=O)c2Cl)CC1
– | – | 1 to 5 µM | 1 to 5 µM | O=c1[nH]ncc(N2CCN(Cc3cccc4ccccc34)CC2)c1Cl
– | – | 10 to 500 µM | 10 to 500 µM | Cc1ccccc1CN1CCN(c2cn[nH]c(=O)c2C2CCOCC2)CC1=O
– | – | 10 to 500 µM | 10 to 500 µM | CCN(CC)C(=O)CN1CCN(c2cn[nH]c(=O)c2Cl)[C@H](C)C1
– | – | 10 to 500 µM | 10 to 500 µM | C[C@@H]1CN(CC(=O)N(C)C)CCN1c1cn[nH]c(=O)c1Cl
– | – | 10 to 500 µM | 10 to 500 µM | Cc1cc(F)ccc1CN1CCN(c2cc(=O)[nH][nH]c2=O)CC1
– | – | 10 to 500 µM | 10 to 500 µM | Cc1ccccc1CN1CCN(c2cn[nH]c(=O)c2Oc2ccccc2)CC1=O
– | – | 1 to 5 µM | 1 to 5 µM | Cc1cc(F)ccc1CN1CCN(c2cn[nH]c(=O)c2Cl)C(C)C1 (centres unmarked)
– | – | 10 to 500 µM | 10 to 500 µM | Cc1cc(F)ccc1CN1CCN(c2n[nH]c(=O)cc2C)CC1
– | – | 5 to 10 µM | 1 to 5 µM | C[C@@H](c1ccccc1)N1CCN(c2cn[nH]c(=O)c2Cl)CC1
– | – | 10 to 500 µM | 10 to 500 µM | Cc1cc(C(F)(F)F)ccc1CN1CCN(c2cn[nH]c(=O)c2Cl)CC1
– | – | 10 to 500 µM | 10 to 500 µM | COc1n[nH]c(=O)cc1N1CCN(Cc2ccc(F)cc2C)CC1
– | – | 1 to 5 µM | 1 to 5 µM | Cc1ccccc1CN1CCN(c2cn[nH]c(=O)c2C2CC2)CC1=O
– | – | 1 to 5 µM | 1 to 5 µM | Cc1cc(F)ccc1CN1CCN(c2cn[nH]c(=O)c2Cl)CC1=O
– | – | 5 to 10 µM | 5 to 10 µM | CCc1c(N2CCN(Cc3ccccc3C)C(=O)C2)cn[nH]c1=O
– | – | 1 to 5 µM | 1 to 5 µM | Cn1ncc2c(CN3CCN(c4cn[nH]c(=O)c4Cl)CC3=O)cccc21
– | – | 5 to 10 µM | 5 to 10 µM | O=c1[nH]ncc(N2CCN(C3(c4ccccc4)CC3)CC2)c1Cl
– | – | 10 to 500 µM | 10 to 500 µM | O=C1CN(c2cnnc(Br)c2Cl)CCN1Cc1ccc(F)cc1C(F)(F)F
– | – | 10 to 500 µM | 10 to 500 µM | O=C1CN(c2c(Cl)c(Br)n[nH]c2=O)CCN1Cc1ccccc1OC(F)(F)F
– | – | 1 to 5 µM | 5 to 10 µM | O=C1CN(c2c(Cl)c(Br)n[nH]c2=O)CCN1Cc1ccccc1C(F)(F)F
– | – | 10 to 500 µM | 10 to 500 µM | Cc1cc(F)ccc1CN1CCN(c2c(Cl)c(Br)n[nH]c2=O)CC1=O
